Measured values as given in publication PMC6591635, “Advancing the Therapeutic Potential of Indoleamides for Tuberculosis” (Antimicrobial Agents and Chemotherapy, 2019).
In brackets after ≈: the same amount, converted by molar mass. Several values for one entry are separate records, joined by “and”; a condition that tells them apart may be missing. Equal values may be shown once. Read-outs that look alike come from different tables or passages of the source. Marks after values point to notes of the source that are not given here.

Tests used:
M. tuberculosis H37Rv [1] = type: in vivo, Mycobacterium tuberculosis
[2] = Single dose pharmacokinetic study in mice (oral formulations, i.v.); type: in vivo, Swiss Webster mice; conditions: mouse
Description: To enhance oral bioavailability, we developed a novel formulation for compound 2 in propylene glycol (PG):Tween 80 (4:1, vol/vol). We compared the bioavailability of this new formulation with a previously reported formulation using 0.5% (wt/vol) carboxymethyl cellulose (CMC) ([19]). For oral (p.o.) administration, compound 2 was prepared in either formulation at 1 mg/ml of homogeneous suspension to achieve a 10-mg/kg dose level. For intravenous (i.v.) injection, a 0.22-mg/ml solution of compound 2 in PG:Tween 80:5% glucose at 20:10:70 (vol/vol/vol) was used. Five-week-old male Swiss Webster mice were randomly assigned to time points (3 mice per arm per time point). Serial blood samples of approximately 30 μl were collected at 0.25, 0.5, 1, 2, 4, 8, and 24 h after a single p.o. dose; and at 0.083, 0.33, 1, 2, 4, 8, and 24 h after a single i.v. dose. Plasma was harvested and stored at −80°C until analysis. Plasma samples were analyzed for compound 2 using liquid chromatography-tandem mass spectrometry (LC-MS/MS), with a limit of quantification of 1.05 ng/ml. Estimation of pharmacokinetic parameters was conducted using noncompartmental analysis with WinNonlin software (Phoenix 6.3).

M. tuberculosis H37Rv [3] = test: animal or person; type: in vivo, Mycobacterium tuberculosis; conditions: for Lung CFU burden compared with untreated controls: 10 mg/kg, 4 weeks of treatment, P < 0.05; for ED50: Mycobacterium tuberculosis, H37RV, in Mus musculus, inhaled or nasal, 672 h, read-out: 50% effective dose (ED50)
M. tuberculosis H37Rv [4] = conditions: M. tuberculosis; stated without method in this paper; cited from earlier work
M. tuberculosis H37Rv [5] = tested on: M. tuberculosis H37Rv; parameters: method as in PMID 27275668; conditions: 4 weeks of treatment, 0.5% (wt/vol) CMC formulation, previous study; cited from earlier work
in vitro = conditions: mouse, plasma
M. tuberculosis H37Rv [6] = test: Field emission scanning electron microscopy of cell morphology (dimples per 100 bacilli); type: cell-based, Mycobacterium tuberculosis; conditions: 24 hours of treatment, FESEM; for Cell morphology (dimples per 100 cells, deformed bacilli): 10× MIC
[7] = male, Swiss Webster, in vivo, po, 10 mg/kg
[8] = 50 mg/kg, 4 weeks of treatment, PG:Tween 80 formulation

CC[C@@H](CO)NCCN[C@@H](CC)CO [ethambutol, reference compound]
Lung CFU counts, Week 2 (M. tuberculosis H37Rv [1]; […], compound 2 in PG:Tween 80): 4.34 (0.25)^b | Lung CFU counts, Week 4 (M. tuberculosis H37Rv [1]; […], compound 2 in PG:Tween 80): 5.60 (0.24)^b | Lung CFU counts, Week 2 (M. tuberculosis H37Rv [1]; in vivo): 3.56 (0.26)^b | Lung CFU counts, Week 4 (M. tuberculosis H37Rv [1]; in vivo): 4.02 (0.28)^b

C[C@@H]1[C@H]2C[C@@H](C[C@H]1NC(=O)c1cc3c(F)cc(F)cc3[nH]1)C2(C)C [compound 2]
F (relative bioavailability) ([2]; 10 mg/kg p.o., PG:Tween 80 formulation (suspension)): 96% | F ([2]; Swiss Webster, in vivo): 22% | F (relative bioavailability) ([2]; male, Swiss Webster, in vivo): 22% | Time for which plasma concentration of free compound exceeded the MIC postdose ([2]; male, Swiss Webster, in vivo): 24 h | Increase in relative bioavailability compared with the CMC formulation [2, 7]: 74% | Tmax [2, 7]: 1.00 ± 0.00 h | Tmax ([2]; male, Swiss Webster, in vivo, po, 10 mg/kg, Tmax): 1.25 ± 1.06 h | Lung CFU count lower than that of positive control ethambutol at 100 mg/kg (M. tuberculosis H37Rv [1]; [8]): 1.2 log | Mean lung CFU count lower than that of untreated controls (M. tuberculosis H37Rv [1]; [8]): 4.66 log | Lung CFU counts, Week 2 (M. tuberculosis H37Rv [1]; […], compound 2 in PG:Tween 80): 3.40 (NA)^b^,^c | Lung CFU counts, Week 4 (M. tuberculosis H37Rv [1]; […], compound 2 in PG:Tween 80): 2.82 (0.34)^b | Lung CFU burden compared with untreated controls (M. tuberculosis H37Rv [3]): significantly reduced the lung CFU burden | ED50 (M. tuberculosis H37Rv [3]): 28.9 mg/kg | MIC (M. tuberculosis H37Rv [4]): 4 ng/mL (≈ 0.012 µM) | Lung CFU counts higher than positive control ethambutol at 100 mg/kg (M. tuberculosis H37Rv [5]): 2.0 log | fraction unbound (in vitro): 0.032

NNC(=O)c1ccncc1 [isoniazid, reference compound]
Cell morphology (dimples per 100 cells, deformed bacilli) (M. tuberculosis H37Rv [6]): more dimples per 100 cells than no treatment, but the difference did not reach statistical significance

CC1(C)CCC(NC(=O)c2cc3c(Cl)cc(Cl)cc3[nH]2)CC1 [compound 3]
Lung CFU burden compared with untreated controls (M. tuberculosis H37Rv [3]): did not | ED50 (M. tuberculosis H37Rv [3]): 43 mg/kg | Lung CFU, D28 (M. tuberculosis H37Rv [3]; in vivo): 7.05±0.09 and 6.99±0.19 and 5.66±0.14 and 4.15±0.06 and 3.65±0.11

Cc1cc(C)c2cc(C(=O)NC3CCCCCCC3)[nH]c2c1 [compound 1]
Cell morphology (unhealthy cells: dimples at poles and septum, wrinkled cell surface) versus untreated (M. tuberculosis H37Rv [6]; 1× and 10× MIC): significantly higher number of unhealthy cells | Cell morphology (dimples per 100 cells, deformed bacilli) (M. tuberculosis H37Rv [6]): higher rate of deformed bacilli than 1× MIC
